Literature values in PubChem BioAssay AID1259410 (Chemical Carcinogenesis Research Information System (CCRIS), 2018).

System: rodent tumor promotion studies, tumor incidence
Test: CCRIS tumor promotion studies

SMILES: CCO
- outcome (Carcinogen: 1,2-DIMETHYLHYDRAZINE [540-73-8], Doses [Carcinogen]: 21 MG/KG WEEKLY FOR 18 WKS, Doses [Promoter]: 1.23 G/KG ADDED TO DRINKING WATER DAILY FOR 25-27 WKS, Route [Carcinogen]: SUBCUTANEOUS, Route [Promoter]: ORAL (DRINKING WATER), Species: RAT, Strain/Sex: SPRAGUE-DAWLEY/MALE, FEMALE): negative
- outcome (Carcinogen: 1,2-DIMETHYLHYDRAZINE, 540-73-8, Doses [Carcinogen]: 30 MG/KG BW 1/WK FOR 4 WK, Doses [Promoter]: 0, 6.6% OF LIQUID DIET BEGINNING 4 WK PRIOR TO CARCINOGEN TREATMENT LIQUID DIETS SUSPENDED FOR 3 WK DURING CARCINOGEN TR, Route [Carcinogen]: SUBCUTANEOUS, Route [Promoter]: ORAL, Species: RAT, Strain/Sex: SPRAGUE-DAWLEY/MALE): rectum: tumors
- outcome (Carcinogen: 4-(METHYLNITROSAMINO)-1-(3-PYRIDYL)-1-BUTANONE, 64091-91-4, Doses [Carcinogen]: 0, 50 MG/KG IN DISTILLED WATER ADMINISTERED INTRATRACHEALLY TO MOTHERS ON DAY 15 OF GESTATION, Doses [Promoter]: 10% IN DRINKING WATER ADMINISTERED IN DRINKING WATER TO MOTHERS ON DAYS 5 THROUGH 16 OF PREGNANCY (STUDY DURATION: 48 WK, Route [Carcinogen]: TRANSPLACENTAL, Route [Promoter]: TRANSPLACENTAL, Species: HAMSTER, Strain/Sex: SYRIAN/FEMALE): nasal cavity: tumor; pancreas: tumor; adrenal gland: tumor
- outcome (Carcinogen: 4-(METHYLNITROSAMINO)-1-(3-PYRIDYL)-1-BUTANONE, 64091-91-4, Doses [Carcinogen]: 0, 50 MG/KG IN DISTILLED WATER ADMINISTERED INTRATRACHEALLY TO MOTHERS ON DAY 15 OF GESTATION, Doses [Promoter]: 10% IN DRINKING WATER ADMINISTERED IN DRINKING WATER TO MOTHERS ON DAYS 5 THROUGH 16 OF PREGNANCY (STUDY DURATION: 48 WK, Route [Carcinogen]: TRANSPLACENTAL, Route [Promoter]: TRANSPLACENTAL, Species: HAMSTER, Strain/Sex: SYRIAN/MALE): pancreas: tumor; adrenal gland: tumor
- outcome (Carcinogen: 4-(METHYLNITROSAMINO)-1-(3-PYRIDYL)-1-BUTANONE, 64091-91-4, Doses [Carcinogen]: 20 MMOL/KG (TOTAL DOSE) 3/WK FOR 4 WK, Doses [Promoter]: 0, 7% (V/V) IN LIQUID DIET FOR 50 WK BEGINNING 1 WK POST CARCINOGEN TREATMENT (STUDY DURATION: 55 WK), Route [Carcinogen]: GAVAGE, Route [Promoter]: ORAL, Species: RAT, Strain/Sex: F344/MALE): esophagus: tumor; oral cavity: tumor; lung: tumor
- outcome (Carcinogen: 7,12-DIMETHYLBENZ[A]ANTHRACENE, 57-97-6, Doses [Carcinogen]: 1% PAINTED ON RIGHT BUCCAL POUCH 1/2 D FOR 1 WK, Doses [Promoter]: 0, 5% IN LIQUID DIET BEGINNING 1 WK POST CARCINOGEN TREATMENT AND CONTINUING FOR 35 WK (STUDY DURATION: 35 WK), Route [Carcinogen]: MUCOUS MEMBRANE, Route [Promoter]: ORAL, Species: HAMSTER, Strain/Sex: SYRIAN/MALE): buccal pouch: epidermoid carcinoma
- outcome (Carcinogen: 17ALPHA-ETHYNYLESTRADIOL, 57-63-6, NORETHINDRONE ACETATE, 51-98-9, Carcinogen: 17ALPHA-ETHYNYLESTRADIOL, 57-63-6, NORETHINDRONE ACETATE, 51-98-9, Doses [Carcinogen]: 0.075 MG EE AND 6 MG NA IN 0.5 ML OLIVE OIL 1/D FOR 12 MO, Doses [Promoter]: 0, 10% IN DRINKING WATER 5 D/WK FOR 12 MO (STUDY DURATION: 12 MO), Route [Carcinogen]: GAVAGE, GAVAGE, Route [Promoter]: ORAL, Species: RAT, Strain/Sex: WISTAR/FEMALE): liver: hepatocellular carcinoma
- outcome (Carcinogen: DIETHYLNITROSAMINE, 55-18-5, Doses [Carcinogen]: 33, 50 PPM IN DRINKING WATER FOR 8 WK, Doses [Promoter]: 10% IN DRINKING WATER FOR 8 WK ADMINISTERED WITH CARCINOGEN (STUDY DURATION: 104 WK), Route [Carcinogen]: ORAL, Route [Promoter]: ORAL, Species: RAT, Strain/Sex: F344/MALE): esophagus: papilloma or carcinoma
- outcome (Carcinogen: Diethylnitrosamine, 55-18-5, Doses [Carcinogen]: 40 mg/l for 4 consecutive d/wk for 180 days, study duration 180 d, Doses [Promoter]: 6%, 3 d /wk for 180 d, study duration 180 d, Route [Carcinogen]: Oral (drinking water), Route [Promoter]: Oral (drinking water), Species: Mouse, Strain/Sex: CF1/Female (16, 47/Group)): stomach: squamous cell carcinoma (33% vs 30%); adenocarcinoma (17% vs 15%); both
- outcome (Carcinogen: METHYLAZOXYMETHANOL ACETATE, 592-62-1, Doses [Carcinogen]: 25 MG/KG IN SALINE 1/WK FOR 2 WK, Doses [Promoter]: 0.10% IN DRINKING WATER FOR 393 D BEGINNING 1 WK POST CARCINOGEN DOSE (STUDY DURATION: 414 D), Route [Carcinogen]: INTRAPERITONEAL, Route [Promoter]: ORAL, Species: RAT, Strain/Sex: ACI/MALE): large intestine: adenoma, adenocarcinoma
- outcome (Carcinogen: N6-(METHYLNITROSO)ADENOSINE, 21928-82-5, Doses [Carcinogen]: 180 MG/KG 3/WK FOR 12 WK, Doses [Promoter]: 0, 15% 3/WK FOR 12 WK ADMINISTERED WITH CARCINOGEN (STUDY DURATION: 18 MO), Route [Carcinogen]: GAVAGE, Route [Promoter]: GAVAGE, Species: MOUSE, Strain/Sex: SWISS/FEMALE): thymus: lymphoma
- outcome (Carcinogen: N'-NITROSONORNICOTINE, 16543-55-8, Doses [Carcinogen]: 40 MMOL/KG (TOTAL DOSE) 3/WK FOR 4 WK, Doses [Promoter]: 0, 7% (V/V) IN LIQUID DIET FOR 50 WK BEGINNING 1 WK POST CARCINOGEN TREATMENT (STUDY DURATION: 55 WK), Route [Carcinogen]: GAVAGE, Route [Promoter]: ORAL, Species: RAT, Strain/Sex: F344/MALE): esophagus: tumor; oral cavity: tumor; lung: tumor
